Assay [1] addresses T1, TAK1 (Homo sapiens, UniProt O43318).
T1 sequence (O43318 1-606): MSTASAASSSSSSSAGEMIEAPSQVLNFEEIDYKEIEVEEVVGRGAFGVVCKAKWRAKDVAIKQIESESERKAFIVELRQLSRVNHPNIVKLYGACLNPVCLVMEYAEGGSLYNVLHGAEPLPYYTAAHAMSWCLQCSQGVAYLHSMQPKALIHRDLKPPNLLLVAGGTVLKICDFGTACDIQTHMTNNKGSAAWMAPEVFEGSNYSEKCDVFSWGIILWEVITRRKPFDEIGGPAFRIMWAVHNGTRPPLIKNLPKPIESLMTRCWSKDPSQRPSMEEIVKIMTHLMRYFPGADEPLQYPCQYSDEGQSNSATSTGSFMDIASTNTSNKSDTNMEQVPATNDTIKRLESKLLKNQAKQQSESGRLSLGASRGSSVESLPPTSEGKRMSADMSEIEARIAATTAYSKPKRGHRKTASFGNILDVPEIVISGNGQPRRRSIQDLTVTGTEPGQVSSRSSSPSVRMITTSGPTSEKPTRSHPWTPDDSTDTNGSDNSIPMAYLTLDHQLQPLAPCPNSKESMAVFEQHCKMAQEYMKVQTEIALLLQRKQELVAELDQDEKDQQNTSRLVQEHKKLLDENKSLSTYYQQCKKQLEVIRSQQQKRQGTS
T1 sequence (Q15750 1-504 partner): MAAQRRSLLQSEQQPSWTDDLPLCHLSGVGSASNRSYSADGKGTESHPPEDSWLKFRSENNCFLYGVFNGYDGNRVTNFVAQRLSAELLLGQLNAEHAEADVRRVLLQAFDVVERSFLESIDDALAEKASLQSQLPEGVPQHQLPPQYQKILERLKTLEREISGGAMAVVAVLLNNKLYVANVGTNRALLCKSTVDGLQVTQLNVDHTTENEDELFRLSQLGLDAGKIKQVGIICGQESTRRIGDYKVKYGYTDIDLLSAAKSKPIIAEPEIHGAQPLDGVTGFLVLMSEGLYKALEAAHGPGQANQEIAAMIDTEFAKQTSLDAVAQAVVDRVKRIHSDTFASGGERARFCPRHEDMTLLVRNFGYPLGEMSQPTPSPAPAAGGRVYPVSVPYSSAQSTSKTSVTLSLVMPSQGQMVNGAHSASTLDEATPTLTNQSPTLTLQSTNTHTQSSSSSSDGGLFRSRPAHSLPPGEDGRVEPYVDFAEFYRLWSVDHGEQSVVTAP
Briefly: TAK1 enzyme inhibition. The class given is biochemical. To be noted: Table 4; read-out: TAK1 pIC50 (enzyme) (converted).

Assay [2] concerns Jurkat. Briefly: AlamarBlue proliferation assay, GI50. The class given is cell-based. To be noted: Homo sapiens, 72 hours, Table 4, read-out: GI50 Jurkat T-ALL. As for the experimental part:
(§1) The TAK1 inhibitors are known in the art (see for example, WO 2003010158, WO 2003010163 and WO2004063186 the disclosures of which are incorporated by reference herein). All cell lines were plated at 10,000 cells/well in flat-bottomed 96 well plates and dosed with test compounds in triplicate over a 10 point dosing range from 0 to 30 μmolesL^−1. All cell lines were incubated with test compounds for a total of 72 hours. Background levels were determined for a control (undosed) plate within 2 hours of dosing test compounds. Following the dosing period, the extent of proliferation was measured by adding 1/10 (vol/vol) AlamarBlue reagent to every well and incubating the plates for a further 4 hours. The reaction was stopped by the addition of SDS to a final concentration of 0.1%. Fluorescence was measured at 545 nm (excitation) and 600 nm (emission). Growth inhibition 50 (GI50) values were determined for each test compound across the panel.
On the technique in general: Alamar Blue is a resazurin reagent that responds to reducing activity.

Assay [3] relates to DOHH2. The experiment in a line: AlamarBlue proliferation assay, GI50. The class given is cell-based. To be noted: Homo sapiens, DOHH-2, 72 hours. As for the experimental part:
as §1

Assay [4] relates to Karpas231. Briefly: AlamarBlue proliferation assay, GI50. In kind it is cell-based. To be noted: Homo sapiens, 72 hours. As for the experimental part: as §1
The subject of assay [5] is HEL92.1.7. The experiment in a line: AlamarBlue proliferation assay, GI50. To be noted: Homo sapiens, HEL 92.1.7, 72 hours, Table 4, read-out: GI50 HEL92.1.7 Erythroleukemia. In kind it is cell-based. As for the experimental part:
as §1

The test system of assay [6] is WSU-NHL. The experiment in a line: AlamarBlue proliferation assay, GI50. To be noted: Homo sapiens, 72 hours, Table 4, read-out: GI50 WSU-NHL B-NHL. In kind it is cell-based. As for the experimental part:
as §1

Assay [7] deals with MEC1. Briefly: AlamarBlue proliferation assay, GI50. The class given is cell-based. To be noted: Homo sapiens, 72 hours. As for the experimental part:
as §1

The test system of assay [8] is SUDHL4. The experiment in a line: AlamarBlue proliferation assay, GI50. In kind it is cell-based. To be noted: Homo sapiens, SU-DHL-4, 72 hours. As for the experimental part: as §1
Assay [9] has as its system KG1a. The experiment in a line: AlamarBlue proliferation assay, GI50. In kind it is cell-based. To be noted: Homo sapiens, KG-1a, 72 hours, Table 4, read-out: GI50 KG1a AML. As for the experimental part:
as §1

Assay [10] relates to OCI-LY19. Briefly: AlamarBlue proliferation assay, GI50. In kind it is cell-based. To be noted: Homo sapiens, 72 hours. As for the experimental part:
as §1

The subject of assay [11] is ARH77. Briefly: AlamarBlue proliferation assay, GI50. The class given is cell-based. To be noted: Homo sapiens, ARH-77, 72 hours. As for the experimental part:
as §1

The subject of assay [12] is Raji. Briefly: AlamarBlue proliferation assay, GI50. The class given is cell-based, human. To be noted: Homo sapiens, Raji, 72 hours, Table 4, read-out: GI50 Raji Burkitts Lymphoma. As for the experimental part:
as §1

Assay [13] has as its system JJN-3. The experiment in a line: AlamarBlue proliferation assay, GI50. In kind it is cell-based. To be noted: Homo sapiens, 72 hours, Table 8, read-out: GI50 JJN-3 plasma cell leukemia. As for the experimental part: as §1
(§2) The experiments to generate the results for both Tables 5 and 6 were performed as described above.

In assay [14] the test system is MOLP-8. The experiment in a line: AlamarBlue proliferation assay, GI50. To be noted: Homo sapiens, 72 hours, Table 8, read-out: GI50 MOLP-8 Multiple myeloma. The class given is cell-based. As for the experimental part:
as §1, §2

Assay [15] has as its system IM-9. The experiment in a line: AlamarBlue proliferation assay, GI50. In kind it is cell-based. To be noted: Homo sapiens, 72 hours, Table 8, read-out: GI50 IM-9 B lymphoblastoid. As for the experimental part:
as §1, §2

The subject of assay [16] is AM0-1. Briefly: AlamarBlue proliferation assay, GI50. In kind it is cell-based. To be noted: Homo sapiens, 72 hours, Table 8, read-out: GI50 AM0-1 plasmacytoma. As for the experimental part:
as §1, §2

The test system of assay [17] is L-363. The experiment in a line: AlamarBlue proliferation assay, GI50. The class given is cell-based. To be noted: Homo sapiens, 72 hours, Table 8, read-out: GI50 L-363 plasma cell leukemia. As for the experimental part: as §1, §2
The test system of assay [18] is JVM-3. Briefly: AlamarBlue proliferation assay, GI50. To be noted: Homo sapiens, 72 hours, Table 7, read-out: GI50 JVM-3 B-PLL. In kind it is cell-based. As for the experimental part: as §1, §2
For assay [19], the system named is RPMI-8226. The experiment in a line: AlamarBlue proliferation assay, GI50. To be noted: Homo sapiens, 72 hours, Table 8, read-out: GI50 RPMI-8226 M.M. The class given is cell-based. As for the experimental part: as §1, §2
The test system of assay [20] is WSU DLCL2. Briefly: AlamarBlue proliferation assay, GI50. The class given is cell-based. To be noted: Homo sapiens, WSUDLCL2, 72 hours, Table 7, read-out: GI50 WSU-DLCL B cell lymphoma. As for the experimental part: as §1, §2
Assay [21] relates to JEKO-1. The experiment in a line: AlamarBlue proliferation assay, GI50. To be noted: Homo sapiens, 72 hours, Table 7, read-out: GI50 JEKO-1 MCL. The class given is cell-based. As for the experimental part: as §1, §2
Assay [22] deals with Lymphoma cell lines carrying the t(14;18) chromosomal translocation. The experiment in a line: AlamarBlue proliferation assay, Example 2. In kind it is cell-based. To be noted: t(14;18) lymphoma cell lines, 72 hours, 0 to 30 μmoles/L, FIG. 3. As for the experimental part:
The chemical name of the compound is 3-[(aminocarbonyl)amino]-5-(4-{[4-(2-methoxyethyl)piperazin-1-yl]methyl}phenyl)thiophene-2-carboxamide.
More specifically, cell lines (OCI-LY19, DOHH2, Karpas231, WSU-NHL and SUDHL4 carry the t(14;18) translocation) were plated at 10,000 cells/well in flat-bottomed 96 well plates and dosed with test compounds in triplicate over a 10 point dosing range from 0 to 30 μmolesL^−1. All cell lines were incubated with test compounds for a total of 72 hours. Background levels were determined for a control (undosed) plate within 2 hours of dosing test compounds. Following the dosing period, the extent of proliferation was measured by adding 1/10 (vol/vol) AlamarBlue reagent to every well and incubating the plates for a further 4 hours. The reaction was stopped by the addition of SDS to a final concentration of 0.1%. Fluorescence was measured at 545 nm (excitation) and 600 nm (emission). GI50 values were determined for each test compound across the panel.

Where [23] appears, read: Table 4, read-out: GI50 DOHH2 FL.
[24] abbreviates: Table 4, read-out: GI50 Karpas231 B-ALL.
Where [25] appears, read: Table 4, read-out: GI50 MEC1 B-CLL.
Setting [26] is: Table 4, read-out: GI50 SUDHL4 DLBCL.
The mark [27] stands for this setting: Table 4, read-out: GI50 OCI-LY19 DLBCL.
Where [28] appears, read: Table 4, read-out: GI50 ARH77 Plasma cell leukemia.

Read-outs that look alike come from different tables or passages of the source.

Five compounds from patent publication US20090312396A1, “METHODS FOR CANCER TREATMENT USING TAK1 INHIBITORS” (AstraZeneca AB, priority 2006, published 2009) can be followed below.

A word on the GI50: it is the concentration giving 50% growth inhibition.

Take `NC(=O)Nc1sc(-c2ccc(CN3CCOCC3)cc2)cc1C(N)=O` [Compound 1, 2-[(aminocarbonyl)amino]-5-[4-(morpholin-4-ylmethyl)phenyl]thiophene-3-carboxamide]: the IC50 in assay [1] is 126 nM. The concentration for 50% growth inhibition (GI50) in [2] was found to be 15900 nM; in assay [3] (setting [23]) it was 127 nM; in [4] (setting [24]), 300 nM; in assay [5], 730 nM; in [6], 370 nM; in [7] (setting [25]), 1340 nM. The GI50 is 6390 nM in assay [8] (setting [26]); 450 nM in [9]; 124 nM in assay [10] (setting [27]); 1170 nM in [11] (setting [28]); 15200 nM in assay [12].
For the compound `CC(c1ccc(-c2cc(C(N)=O)c(NC(N)=O)s2)cc1)N1CCCCC1` (stereo not shown) [Compound 2, 2-[(aminocarbonyl)amino]-5-[4-(1-piperidin-1-ylethyl)phenyl]thiophene-3-carboxamide], the IC50 in assay [1] is 50.1 nM. In addition, the concentration for 50% growth inhibition (GI50) in assay [2] stood at 4390 nM; in assay [3] (setting [23]), 14 nM; in [4] (setting [24]), 140 nM; in [5] it was 170 nM; in assay [6], 250 nM; in assay [7] (setting [25]) it was 160 nM. The GI50 was 2420 nM in [8] (setting [26]); 400 nM in assay [9]; 5 nM in assay [10] (setting [27]); 250 nM in assay [11] (setting [28]); 3500 nM in [12].
Regarding `NC(=O)Nc1cc(-c2ccc(CN3CCOCC3)cc2)sc1C(N)=O` [Compound 3, 3-[(aminocarbonyl)amino]-5-[4-(morpholin-4-ylmethyl)phenyl]thiophene-2-carboxamide], the IC50 in assay [1] is 100 nM. The GI50 was greater than 30000 nM in assay [2]; 175 nM in assay [3] (setting [23]); 160 nM in assay [4] (setting [24]); 500 nM in [5]; 420 nM in [6]; 630 nM in assay [7] (setting [25]). The GI50 in assay [8] (setting [26]) is 2720 nM; in assay [9] it was 430 nM; in [10] (setting [27]), 85 nM; in assay [11] (setting [28]) it was 480 nM; in assay [12], greater than 30000 nM.
With `COc1cc(O)c2c(c1)/C=C/C[C@H](O)[C@H](O)C(=O)/C=C\C[C@H](C)OC2=O` [LL-Z-1640-2, (3S,5Z,8S,9S,11E)-8,9,16-trihydroxy-14-methoxy-3-methyl-3,4,9,10-tetrahydro-1H-2-benzoxacyclotetradecine-1,7(8H)-dione, reference compound], the concentration for 50% growth inhibition (GI50) is no less than 32400 nM in [13]; 10400 nM in [14]; 20 nM in [15]; 570 nM in assay [16]; no less than 32400 nM in assay [17]; 710 nM in [18]. The 50% growth inhibitory concentration (GI50) came out at 1410 nM in assay [19]; 20 nM in assay [20]; 70 nM in assay [21]; 390 nM in [3] (Table 7, read-out: GI50 DOHH2 FL); 950 nM in assay [4] (Table 7, read-out: GI50 KARPAS231 B-ALL); 730 nM in [7] (Table 7, read-out: GI50 MEC1 B-CLL). Besides, the GI50 in assay [8] (Table 7, read-out: GI50 SUDHL4 DLBCL) amounted to 1640 nM; in assay [10] (Table 7, read-out: GI50 OCI-LY19 DLBCL), 230 nM; in [11] (Table 8, read-out: GI50 ARH-77 plasma cell leukemia), 1240 nM.
Consider `COCCN1CCN(Cc2ccc(-c3cc(NC(N)=O)c(C(N)=O)s3)cc2)CC1` [TAK1 inhibitor, 3-[(aminocarbonyl)amino]-5-(4-{[4-(2-methoxyethyl)piperazin-1-yl]methyl}phenyl)thiophene-2-carboxamide], for which the “sensitivity of cell lines to TAK1 inhibitor” value in [22] is recorded as “sensitive”.
